This is an account of results in patent publication US12351571B2, “Substituted quinoxaline compounds as inhibitors of FGFR tyrosine kinases” (ARRAY BIOPHARMA INC., priority 2018, dated 2025).

The structures appear in SMILES notation.

Assay [1] concerns the target recombinant human FGFR2 cytoplasmic domain (Homo sapiens (Human), UniProt P21802). As to the kind of experiment: FGFR Enzyme Activity Assay (LanthaScreen TR-FRET), FGFR2. In kind it is biochemical. Conditions: 15 μM ATP, 20 minute incubation; read-out: FGFR2 Enz FRET IC50. The method, then:
FGFR2 kinase activity was measured by the Invitrogen LanthaScreen™ Assay technology which directly measures the amount of substrate phosphorylation by TR-FRET using a flourescently-labeled peptide and Europium-labeled antibody. Briefly, 200 pM His-tagged recombinant human FGFR2 cytoplasmic domain (amino acids 403-822) (Life Technologies Cat. No. PR5332A) was incubated with 100 nM Alexa Fluor® 647-Poly-GT Peptide Substrate (Life Technologies Cat. No. PV5836) and 15 μM ATP along with test compound in a buffer consisting of 250 mM HEPES, 25 mM MgCl2, 0.05% TritonX-100, pH 7.5, and 2% DMSO. Compounds were typically prepared in a threefold serial dilution in DMSO and added to the assay to give the appropriate final concentration. After a 20 minute incubation at 22° C., an equal volume of 2 nM LanthaScreen® Eu-PY20 Antibody (Life Technologies Cat. No. PV5691) and 10 mM EDTA were added to quench the kinase reaction and start the detection reaction. After an additional 60 minute incubation at 22° C., the reaction was measured using a PerkinElmer EnVision multimode plate reader via TR-FRET dual wavelength detection, and the percent of control (POC) calculated using a ratiometric emission factor. 100 POC was determined using no test compounds and 0 POC was determined using no enzyme. The POC values were fit to a 4-parameter logistic curve as a function of the concentration of the compound, and the IC50 value is the point where the curve crosses 50 POC.
(Time-resolved FRET reads energy transfer from a long-lived donor to a nearby acceptor.)

In the next assay the target is FGFR1 (Homo sapiens (Human), UniProt P11362). As to the kind of experiment: LC/MS FGFR1 kobs assay (covalent modification). In kind it is biochemical. The settings on record: 500 nM FGFR1, 3 μM compound. The method, then:
The LC/MS FGFR1 and FGFR3 kobs assays were conducted as follows. 500 nM FGFR1 (Array BioPharma construct p1702; SEQ ID NO: 1, amino acids 458-765) or FGFR3 (Array BioPharma construct p1700; SEQ ID NO: 5, amino acids 449-759) were incubated with 3 μM compound in 25 mM HEPES (4-(2-hydroxyethyl)-1-piperazineethanesulfonic acid), pH 7.4, 5 mM MgCl2, 150 mM NaCl, 0.5 mM TCEP (tris(2-carboxyethyl) phosphine), and 2% DMSO in a total volume of 20 μL. At each time point, the reaction was quenched with 20 μL of 0.4% formic acid. The extent of protein modification by each compound was determined by LC/MS on an Agilent Technologies 6520 Q-TOF LC/MS. Protein signals were then automatically deconvoluted using Agilent Masshunter software. Deconvoluted mass signals were exported to Tibco Spotfire data analysis program for further processing and normalization.
Data analysis included five steps. First, the signals for the “DMSO Controls” were analyzed to determine the percent of signal associated with unmodified FGFR1 or FGFR3 at each time point. Next, the percent of the signal associated with the covalent modification was determined. Third, the average nonmodified “DMSO Control” signal was used to normalize the modified protein signals at each time point. The percent of unmodified protein was fit to an exponential decay model where A0 is the Percent Unmodified at the start of the reaction, and kobs is the observed rate constant over the time period.

A further assay has as its target human wild type FGFR1 (Homo sapiens (Human), UniProt P11362). Put plainly: FGFR1 pERK Cell Assay. In kind it is cell-based. The settings on record: HEK-293 cells, 1 hour compound, 100 ng/ml human FGF-acidic; maximum concentration 5 μM. The method, then: (§1) HEK-293 cells transfected with doxycycline(dox)-inducible human wild type FGFR1 (SEQ ID NO: 1) were plated in a collagen or poly-D-lysine coated 96 well flat bottom plates at 4×10^5 cells/well in complete Dulbecco's Modified Eagle Medium (DMEM) containing 10% FBS and 1 μg/ml doxycycline and allowed to attach for 24 h at 37° C., 5% CO2. Cells were treated with compound using 1:3 serial dilutions with a maximum final concentration of 5 μM. Compound was incubated on cells for 1 hour at 37° C., 5% CO2. Cells were then stimulated with a final concentration of 100 ng/ml human FGF-acidic (R&D Systems Cat number 232-FA/CF) for 5 minutes at 37° C., 5% CO2. Medium was removed, and cells were lysed with lysis buffer containing phosphatase and protease inhibitors. Phospho ERK1/2 was measured using the Meso Scale Discovery sandwich assay (Meso Scale Discovery cat. no. K151DWD). The assay captures phospho ERK1/2 and detects with a sulfo-tagged total ERK1/2 antibody. The chemiluminescent signal was read on the Sector Imager Plate reader. 100 POC was determined using no test compound and 0 POC was determined using a control compound. The POC values were fit to a 4-parameter logistic curve as a function of the concentration of the compound, and the IC50 value is the point where the curve crosses 50 POC.

In a further assay the target is human wild type FGFR3 (Homo sapiens (Human), UniProt P22607). Put plainly: FGFR3 pERK Cell Assay. The class given is cell-based. Conditions: HEK-293 cells, 1 hour compound, 100 ng/ml human FGF-acidic; maximum concentration 5 μM. On the procedure:
as §1, with “with dox-inducible” for “with doxycycline(dox)-inducible”, “type FGFR3” for “type FGFR1”, “NO: 5)” for “NO: 1)”, “complete DMEM medium” for “complete Dulbecco's Modified Eagle Medium (DMEM)”, “test compounds” for “test compound”

Usually IC50 stands for the concentration at which inhibition is half-maximal.

Sequence of human wild type FGFR1 (P11362 22-822): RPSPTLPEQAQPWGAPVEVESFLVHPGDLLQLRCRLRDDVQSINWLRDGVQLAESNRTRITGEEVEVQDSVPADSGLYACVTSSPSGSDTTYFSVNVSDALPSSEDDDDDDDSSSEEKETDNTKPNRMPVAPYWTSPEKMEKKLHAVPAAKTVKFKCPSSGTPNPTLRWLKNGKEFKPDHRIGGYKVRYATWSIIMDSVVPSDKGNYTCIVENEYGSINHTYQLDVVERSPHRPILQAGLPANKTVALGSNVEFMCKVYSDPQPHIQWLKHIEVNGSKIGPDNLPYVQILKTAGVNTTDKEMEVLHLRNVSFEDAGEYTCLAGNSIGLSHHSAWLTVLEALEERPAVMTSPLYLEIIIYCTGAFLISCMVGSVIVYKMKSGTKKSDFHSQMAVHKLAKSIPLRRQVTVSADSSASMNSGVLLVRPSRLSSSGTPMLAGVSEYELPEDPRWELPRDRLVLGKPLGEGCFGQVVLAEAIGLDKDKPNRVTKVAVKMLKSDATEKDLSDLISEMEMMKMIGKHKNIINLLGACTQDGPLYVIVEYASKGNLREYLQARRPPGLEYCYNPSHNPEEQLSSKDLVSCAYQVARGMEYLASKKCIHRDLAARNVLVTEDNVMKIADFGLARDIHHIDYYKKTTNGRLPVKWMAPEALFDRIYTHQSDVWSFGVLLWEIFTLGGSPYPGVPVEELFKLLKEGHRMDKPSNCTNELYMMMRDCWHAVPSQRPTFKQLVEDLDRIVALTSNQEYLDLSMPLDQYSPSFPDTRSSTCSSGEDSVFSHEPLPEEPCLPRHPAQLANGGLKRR
Sequence of recombinant human FGFR2 cytoplasmic domain (P21802 402-821): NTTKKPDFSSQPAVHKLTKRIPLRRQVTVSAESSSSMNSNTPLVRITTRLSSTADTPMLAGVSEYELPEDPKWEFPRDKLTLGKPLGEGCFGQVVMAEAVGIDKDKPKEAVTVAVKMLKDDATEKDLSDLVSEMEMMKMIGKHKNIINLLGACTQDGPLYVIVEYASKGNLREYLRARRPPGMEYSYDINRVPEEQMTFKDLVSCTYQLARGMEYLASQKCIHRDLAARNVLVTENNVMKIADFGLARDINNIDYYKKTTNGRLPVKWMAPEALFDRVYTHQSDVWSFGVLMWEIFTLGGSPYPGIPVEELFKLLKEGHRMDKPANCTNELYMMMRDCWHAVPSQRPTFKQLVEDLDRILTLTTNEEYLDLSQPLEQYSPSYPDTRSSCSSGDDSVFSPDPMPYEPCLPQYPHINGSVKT
Sequence of FGFR1 (P11362 458-765): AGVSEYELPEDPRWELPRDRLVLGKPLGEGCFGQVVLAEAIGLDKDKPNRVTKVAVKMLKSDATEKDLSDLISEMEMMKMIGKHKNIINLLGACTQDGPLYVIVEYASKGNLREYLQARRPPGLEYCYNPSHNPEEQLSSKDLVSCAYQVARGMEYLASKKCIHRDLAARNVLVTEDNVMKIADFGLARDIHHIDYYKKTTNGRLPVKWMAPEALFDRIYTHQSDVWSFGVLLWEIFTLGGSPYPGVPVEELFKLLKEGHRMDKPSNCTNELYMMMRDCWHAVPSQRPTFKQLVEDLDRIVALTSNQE
Sequence of human wild type FGFR3 (P22607 23-806): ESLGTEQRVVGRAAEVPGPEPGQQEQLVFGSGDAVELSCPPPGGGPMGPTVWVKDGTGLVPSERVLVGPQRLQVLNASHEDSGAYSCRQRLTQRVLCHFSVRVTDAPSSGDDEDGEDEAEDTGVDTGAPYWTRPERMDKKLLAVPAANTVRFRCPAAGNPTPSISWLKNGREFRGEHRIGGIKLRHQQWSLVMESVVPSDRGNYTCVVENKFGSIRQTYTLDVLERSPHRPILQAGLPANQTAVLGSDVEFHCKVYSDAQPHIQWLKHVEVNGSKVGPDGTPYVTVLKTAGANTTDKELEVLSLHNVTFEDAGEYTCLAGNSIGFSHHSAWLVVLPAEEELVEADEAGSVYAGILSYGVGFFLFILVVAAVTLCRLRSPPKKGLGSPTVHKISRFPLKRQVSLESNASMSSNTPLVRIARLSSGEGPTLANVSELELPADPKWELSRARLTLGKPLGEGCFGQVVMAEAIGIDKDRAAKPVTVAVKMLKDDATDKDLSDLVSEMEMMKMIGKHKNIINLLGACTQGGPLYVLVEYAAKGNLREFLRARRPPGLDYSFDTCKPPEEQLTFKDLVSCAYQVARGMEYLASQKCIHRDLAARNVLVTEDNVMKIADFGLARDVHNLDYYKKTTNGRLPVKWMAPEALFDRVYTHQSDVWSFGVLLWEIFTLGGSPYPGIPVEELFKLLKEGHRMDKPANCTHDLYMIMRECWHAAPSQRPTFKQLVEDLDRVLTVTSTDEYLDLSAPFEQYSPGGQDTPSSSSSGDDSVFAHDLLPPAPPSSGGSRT

On to `COc1cc(Nc2ccc3ncc(-c4cnn(C5CCN(C(=O)C6(C#N)CN(C(=O)/C=C/CN(C)C)C6)CC5)c4)nc3c2)cc(OC)c1` [Example 11, (E)-3-(4-(4-(7-((3,5-dimethoxyphenyl)amino)-quinoxalin-2-yl)-1H-pyrazol-1-yl)piperidine-1-carbonyl)-1-(4-(dimethyl-amino)but-2-enoyl)-azetidine-3-carbonitrile], for which the IC50 in assay [1] is 15 nM; at human wild type FGFR1, 149 nM; against human wild type FGFR3 it was 19 nM. For the same molecule, the “FGFR1 Enz kobs” value on FGFR1 is 0.01822 min⁻¹.

In the case of `C=CC(=O)N1CC(C#N)(C(=O)N2CCC(n3cc(-c4cnc5ccc(Nc6cc(OC)cc(OC)c6)cc5n4)cn3)CC2)C1` [Example 12, 1-acryloyl-3-(4-(4-(7-((3,5-dimethoxyphenyl)-amino)quinoxalin-2-yl)-1H-pyrazol-1-yl)-piperidine-1-carbonyl)-azetidine-3-carbonitrile], the results for the IC50 (in assay [1]; against human wild type FGFR1; at human wild type FGFR3) were 33 nM, 149 nM and 22 nM, respectively. On FGFR1, the “FGFR1 Enz kobs” value was found to be 0.0107 min⁻¹.

`COc1cc(Nc2ccc3ncc(-c4cnc(N5CCN(C(=O)C6(F)CN(C(=O)/C=C/CN(C)C)C6)CC5)cc4C)nc3c2)cc(OC)c1` [Example 14, (E)-1-(3-(4-(5-(7-((3,5-dimethoxyphenyl)amino)-quinoxalin-2-yl)-4-methylpyridin-2-yl)-piperazine-1-carbonyl)-3-fluoroazetidin-1-yl)-4-(dimethylamino)but-2-en-1-one]: the IC50 in assay [1] came out at 666 nM; against human wild type FGFR1, 1940 nM; at human wild type FGFR3, 540 nM. For the same molecule, the “FGFR1 Enz kobs” value at FGFR1 is 0.00326 min⁻¹.

As to `C=CC(=O)N1CC(F)(C(=O)N2CCN(c3cc(C)c(-c4cnc5ccc(Nc6cc(OC)cc(OC)c6)cc5n4)cn3)CC2)C1` [Example 15, 1-(3-(4-(5-(7-((3,5-dimethoxyphenyl)amino)-quinoxalin-2-yl)-4-methylpyridin-2-yl)-piperazine-1-carbonyl)-3-fluoroazetidin-1-yl)prop-2-en-1-one], the IC50 was 5000 nM in assay [1], at least 5000 nM on human wild type FGFR1 and 528 nM against human wild type FGFR3. Also, the “FGFR1 Enz kobs” value at FGFR1 came out at 0.00154 min⁻¹.

`C=CC(=O)N1CC(C(=O)N2CC(n3cc(-c4cnc5ccc(Nc6cc(OC)cc(OC)c6)cc5n4)cn3)C2)C1` [Example 16, 1-(3-(3-(4-(7-((3,5-dimethoxyphenyl)amino)-quinoxalin-2-yl)-1H-pyrazol-1-yl)azetidine-1-carbonyl)azetidin-1-yl)-prop-2-en-1-one]: the results for the IC50 (in assay [1]; against human wild type FGFR1; against human wild type FGFR3) were 27 nM, 3000 nM and 397 nM, respectively. Besides, on FGFR1, the “FGFR1 Enz kobs” value worked out at 0.00151 min⁻¹.

On to `COc1cc(Nc2ccc3ncc(-c4cnn(C5CCN(C(=O)C6(F)CN(C(=O)/C=C/CN(C)C)C6)CC5)c4C)nc3c2)cc(OC)c1` [Example 17, (E)-1-(3-(4-(4-(7-((3,5-dimethoxyphenyl)amino)-quinoxalin-2-yl)-5-methyl-1H-pyrazol-1-yl)piperi-dine-1-carbonyl)-3-fluoroazetidin-1-yl)-4-(dimethylamino)but-2-en-1-one], for which the half-inhibitory concentration (IC50) in assay [1] worked out at 118 nM; against human wild type FGFR1 it was 423 nM; at human wild type FGFR3, 61 nM. The “FGFR1 Enz kobs” value at FGFR1 was 0.00842 min⁻¹.

As to `C=CC(=O)N1CC(C(=O)N2CCC(n3ncc(-c4cnc5ccc(Nc6cc(OC)cc(OC)c6)cc5n4)c3C)CC2)C1` [Example 18, 1-(3-(4-(4-(7-((3,5-dimethoxyphenyl)amino)-quinoxalin-2-yl)-5-methyl-1H-pyrazol-1-yl)piperi-dine-1-carbonyl)azetidin-1-yl)prop-2-en-1-one], the half-inhibitory concentration (IC50) in assay [1] came out at 555 nM; against human wild type FGFR1, 3660 nM; against human wild type FGFR3 it was 216 nM. Besides, the “FGFR1 Enz kobs” value at FGFR1 was 0.00096 min⁻¹.

As for `COc1cc(Nc2ccc3ncc(-c4cnn([C@@H]5CCN(C(=O)C6(F)CN(C(=O)/C=C/CN(C)C)C6)C5)c4)nc3c2)cc(OC)c1` [Example 19, (R,E)-1-(3-(3-(4-(7-((3,5-dimethoxyphenyl)amino)-quinoxalin-2-yl)-1H-pyrazol-1-yl)pyrrolidine-1-carbonyl)-3-fluoro-azetidin-1-yl)-4-(dimethyl-amino)but-2-en-1-one], the results for the half-inhibitory concentration (IC50) (in assay [1]; at human wild type FGFR1; at human wild type FGFR3) were 166 nM, 1280 nM and 114 nM, respectively. Besides, the “FGFR1 Enz kobs” value on FGFR1 came out at 0.00339 min⁻¹.

For the molecule `COc1cc(Nc2ccc3ncc(-c4cnn([C@@H]5CCN(C(=O)C6CN(C(=O)/C=C/CN(C)C)C6)C5)c4)nc3c2)cc(OC)c1` [Example 20, (R,E)-1-(3-(3-(4-(7-((3,5-dimethoxyphenyl)amino)-quinoxalin-2-yl)-1H-pyrazol-1-yl)pyrrolidine-1-carbonyl)azetidin-1-yl)-4-(dimethylamino)but-2-en-1-one], the concentration for half-maximal inhibition (IC50) was 107 nM in assay [1], at least 5000 nM on human wild type FGFR1 and 2740 nM at human wild type FGFR3. For the same molecule, the “FGFR1 Enz kobs” value on FGFR1 was found to be 0.00141 min⁻¹.

On to `C=CC(=O)N1CC(C(=O)N2CC[C@@H](n3cc(-c4cnc5ccc(Nc6cc(OC)cc(OC)c6)cc5n4)cn3)C2)C1` [Example 21, (R)-1-(3-(3-(4-(7-((3,5-dimethoxyphenyl)amino)-quinoxalin-2-yl)-1H-pyrazol-1-yl)pyrrolidine-1-carbonyl)azetidin-1-yl)prop-2-en-1-one], for which the half-maximal inhibitory concentration (IC50) worked out at 187 nM in assay [1], 1890 nM at human wild type FGFR1 and 390 nM against human wild type FGFR3. Also, the “FGFR1 Enz kobs” value at FGFR1 was 0.00106 min⁻¹.

`COc1cc(Nc2ccc3ncc(-c4cn(C5CCN(C(=O)C6(F)CN(C(=O)/C=C/CN(C)C)C6)CC5)nc4C)nc3c2)cc(OC)c1` [Example 22, (E)-1-(3-(4-(4-(7-((3,5-dimethoxyphenyl)amino)-quinoxalin-2-yl)-3-methyl-1H-pyrazol-1-yl)-piperidine-1-carbonyl)-3-fluoroazetidin-1-yl)-4-(dimethylamino)but-2-en-1-one]: the concentration for half-maximal inhibition (IC50) in assay [1] is 84 nM; on human wild type FGFR1 it was 898 nM; on human wild type FGFR3, 113 nM. For the same molecule, at FGFR1, the “FGFR1 Enz kobs” value stood at 0.00673 min⁻¹.
